# Where “and” joins values, the source holds several entries; their conditions need not be identical. Equal entries are not always repeated. Entries after “also recorded” stand apart in the source; their conditions may differ. Marks after values point to notes of the source that are not given here.
# Experiments:
# Format in all cases: in vivo, human
# advanced solid tumors = experiment: Preliminary antitumor activity (RECIST 1.1 best overall response, ORR, PFS, OS)
# Description: Best overall response was defined as a complete response (CR), partial response (PR), stable disease (SD), or progressive disease per RECIST 1.1 (solid tumors). […] Patients who had SD or better as their best overall response were classified as having achieved clinical benefit. These criteria must have been met at 1 time point and ≥1 subsequent time point(s) (the first of which was within 28 days of the initial time point). PFS was determined as the time from the first dose of study medication to the date of the first objective documentation of tumor progression or death due to any cause. All treated patients who received ≥1 dose of BMS-986158 were evaluated in the safety population. […] All treated patients with available and sufficient serum or plasma samples for the corresponding analytes were included in the PK analyses. […] ECG parameters were evaluated in a categorical analysis, and linear mixed-effects regression modeling was used to describe the quantitative relationship between ΔQTcF and time-matched serum concentrations of BMS-986158 or its metabolite at a single dose. Descriptive summary statistics, including means and 95% CIs, were calculated using the Clopper-Pearson method for ORR and Kaplan–Meier method for PFS and OS. During dose escalation, an mTPI design targeted a 27% DLT rate to guide escalation decisions and the MTD selection. In the dose-escalation segment, the target enrollment was up to 30 patients per schedule and 3–13 DLT-evaluable patients at a dose level, with an aim to determine the MTD. The totality of the data, including PK, pharmacodynamics, and patient overall safety, including at lower dose levels, was also used to select the RP2D.
# BET-regulated genes = experiment: Transcriptional changes in matched pre- and on-treatment samples; conditions: of >18,000 genes measured; Benjamini–Hochberg–adjusted p < 0.05; 41 patients
# Description: (§1) Summary changes from baseline in the expression of BET-regulated genes were assessed in tumor tissues and blood collected at baseline and multiple on-treatment time points after BMS-986158 administration following the 3 dosing schedules. The study also assessed summary percent changes from baseline in expression of BET-regulated genes in peripheral blood and tumors (such as HEXIM1 and C-MYC). Tissue and peripheral blood samples (at baseline and on treatment) were collected for genomic, transcriptomic, and epigenetic analyses (by DNA or mRNA) to assess pharmacodynamic changes in BET-regulated genes. These samples were analyzed using whole-exome sequencing, real-time quantitative polymerase chain reaction, and RNA-sequencing methods.
# (§2) All treated patients with available biomarker measurements at baseline and ≥1 time point were included in the biomarker analyses. Blood and tumor tissue samples were collected at baseline, during treatment, and at end of treatment for biomarker analysis. Markers of selected BET-regulated genes (e.g., HEXIM1) were analyzed with summary statistics for percent changes in expression from available matched pre- and on-treatment samples over time relative to baseline. Statistically significant changes in gene expression were determined using the Benjamini–Hochberg procedure to calculate an adjusted p value with an α level of 0.05.
# CCR2 mRNA = experiment: Change from baseline in gene expression, CCR2; conditions: patients; single dose up to 4.5 mg and schedule A
# Description: as §1, §2
# [1] = Schedule A (5 days on, 2 days off), n = 46
# [2] = Schedule B (14 days on, 7 days off), n = 8
# [3] = Schedule C (7 days on, 14 days off), n = 29
structure (smiles),measurement,setting,value
Cc1nnn(C)c1-c1cnc2c3ccc(C(C)(C)O)cc3n([C@H](c3ccccc3)C3CCOCC3)c2c1 [BMS-986158],Patients with clinical benefit,advanced solid tumors; 4.5-mg dose on schedule A (9/14),64%
same,OS rate,"advanced solid tumors; 6 months, Schedule A",52.6%
same,OS rate,"advanced solid tumors; 6 months, Schedule C",48.4%
same,"OS rate, n (95% CI)","advanced solid tumors; 6 months, Schedule A (5 days on, 2 days off), n = 46",52.6%
same,"OS rate, n (95% CI)","advanced solid tumors; 6 months, Schedule C (7 days on, 14 days off), n = 29",48.4%
same,OS rate,"advanced solid tumors; 12 months, Schedule A",34.3%
same,OS rate,"advanced solid tumors; 12 months, Schedule C",30.8%
same,"OS rate, n (95% CI)","advanced solid tumors; 12 months, Schedule A (5 days on, 2 days off), n = 46",34.3%
same,"OS rate, n (95% CI)","advanced solid tumors; 12 months, Schedule C (7 days on, 14 days off), n = 29",30.8%
same,"PFS rate, range depending on treatment schedule",advanced solid tumors; 24 weeks,13.5–42.9%
same,"PFS rate, n (95% CI)","advanced solid tumors; 24 weeks, Schedule A (5 days on, 2 days off), n = 46",18.1%
same,"PFS rate, n (95% CI)","advanced solid tumors; 24 weeks, Schedule B (14 days on, 7 days off), n = 8",42.9%
same,"PFS rate, n (95% CI)","advanced solid tumors; 24 weeks, Schedule C (7 days on, 14 days off), n = 29",13.5%
same,"PFS rate, range depending on treatment schedule",advanced solid tumors; 48 weeks,6.8–14.3%
same,"PFS rate, n (95% CI)","advanced solid tumors; 48 weeks, Schedule A (5 days on, 2 days off), n = 46",10.3%
same,"PFS rate, n (95% CI)","advanced solid tumors; 48 weeks, Schedule B (14 days on, 7 days off), n = 8",14.3%
same,"PFS rate, n (95% CI)","advanced solid tumors; 48 weeks, Schedule C (7 days on, 14 days off), n = 29",6.8%
same,Patients with clinical benefit,advanced solid tumors; NUT carcinoma (4/7),57.1%
same,Best overall response unable to be determined,advanced solid tumors; Schedule A,17.4%
same,Stable disease rate,advanced solid tumors; Schedule A,26.1%
same,Best overall response by investigator: complete response,advanced solid tumors; [1],0 n (%)
same,Best overall response by investigator: partial response,advanced solid tumors; [1],2 (4.3) ^a n (%)
same,Best overall response by investigator: progressive disease,advanced solid tumors; [1],24 (52.2) n (%)
same,Best overall response by investigator: stable disease,advanced solid tumors; [1],12 (26.1) n (%)
same,Best overall response by investigator: unable to determine,advanced solid tumors; [1],8 (17.4) ^b n (%)
same,Median OS (95% CI),advanced solid tumors; [1],7.52 (4.17–11.99) months
same,Median PFS (95% CI),advanced solid tumors; [1],8.29 (7.14–9.71) weeks
same,ORR (95% CI),advanced solid tumors; [1],2%
same,Patients with a partial response,"advanced solid tumors; Schedule A, 4.5-mg starting dose (ovarian cancer, NUT carcinoma)",2 patients
same,Patients achieving clinical benefit,"advanced solid tumors; Schedule A, all doses",30% and 30.4%
same,Best overall response unable to be determined,advanced solid tumors; Schedule B,12.5%
same,Stable disease rate,advanced solid tumors; Schedule B,37.5%
same,Best overall response by investigator: complete response,advanced solid tumors; [2],0 n (%)
same,Best overall response by investigator: partial response,advanced solid tumors; [2],0 n (%)
same,Best overall response by investigator: progressive disease,advanced solid tumors; [2],4 (50.0) n (%)
same,Best overall response by investigator: stable disease,advanced solid tumors; [2],3 (37.5) n (%)
same,Best overall response by investigator: unable to determine,advanced solid tumors; [2],1 (12.5) ^c n (%)
same,Median OS (95% CI),advanced solid tumors; [2],9.23 (2.79–11.83) months
same,Median PFS (95% CI),advanced solid tumors; [2],8.43 (5.57–40.14) weeks
same,ORR (95% CI),advanced solid tumors; [2],0 (0.0–36.9) %
same,Best overall response unable to be determined,advanced solid tumors; Schedule C,17.2%
same,Stable disease rate,advanced solid tumors; Schedule C,31.0%
same,Best overall response by investigator: complete response,advanced solid tumors; [3],0 n (%)
same,Best overall response by investigator: partial response,advanced solid tumors; [3],0 n (%)
same,Best overall response by investigator: progressive disease,advanced solid tumors; [3],15 (51.7) n (%)
same,Best overall response by investigator: stable disease,advanced solid tumors; [3],9 (31.0) n (%)
same,Best overall response by investigator: unable to determine,advanced solid tumors; [3],5 (17.2) ^d n (%)
same,Median OS (95% CI),advanced solid tumors; [3],5.32 (3.52–11.83) months
same,Median PFS (95% CI),advanced solid tumors; [3],9.00 (7.86–13.29) weeks
same,ORR (95% CI),advanced solid tumors; [3],0 (0.0–11.9) %
same,Patients with SD or better,advanced solid tumors; across treatment schedules and doses (n = 26),31.3%
same,Patients with clinical benefit,advanced solid tumors; adenoid cystic carcinoma (4/4),100%
same,Complete response,advanced solid tumors; all schedules,No patients experienced a CR
same,Tumor marker CA 125 level after treatment initiation,"advanced solid tumors; one patient, ovarian cancer, 4.5 mg schedule A, 3032 U/mL prior to C1D1",decreased and remained stable; also recorded: decreased and stabilized
same,Duration of partial response on study treatment,"advanced solid tumors; one patient, serous papillary ovarian cancer, 4.5 mg schedule A",155 days
same,Reduction in tumor burden,"advanced solid tumors; one patient, serous papillary ovarian cancer, 4.5 mg schedule A, PR at day 170",35%
same,"PFS, range depending on treatment schedule","advanced solid tumors; schedules A, B, C",8.29–9.00 weeks
same,"Progressive disease as best response, range across treatment schedules","advanced solid tumors; schedules A, B, C",50.0–52.2%
same,Patients with clinical benefit,advanced solid tumors; uveal melanoma (3/5),60%
same,Genes with significant changes in expression,BET-regulated genes,4500
same,CCR2 mRNA expression change from baseline,CCR2 mRNA,transcriptional suppression; also recorded: dose-dependent expression changes

# — paper PMC9454848, “BMS-986158, a Small Molecule Inhibitor of the Bromodomain and Extraterminal Domain Proteins, in Patients with Selected Advanced Solid Tumors: Results from a Phase 1/2a Trial” (Cancers, 2022)
